Values of other authors, collected in US20170173097A1, “COMPOSITIONS FOR ENHANCING DETOXIFICATION AND USES THEREOF” (Specialty Nutrition Group, Inc., priority 2014, published 2017).
Where two headings read alike, the source gives them in different places.

Tested on: beta-glucuronidase

## O=C([O-])[C@@H](O)[C@@H](O)[C@H](O)[C@@H](O)C(=O)[O-].[Ca+2] [calcium D-glucarate]
In the blood
  inhibition of beta-glucuronidase: 57%
In the intestines
  inhibition of beta-glucuronidase: 39%
In the liver
  inhibition of beta-glucuronidase: 44%
In the lungs
  inhibition of beta-glucuronidase: 37%
